Measurements: patent publication US20160108049A1 (TAKEDA Gmbh, priority 2011, published 2016)

How the values were obtained:
PDE4B1 = biological target: T1, PDE4B1 (Homo sapiens, UniProt Q07343); assay: Inhibition of PDE4 activity (PDE4B1, SPA assay); assay type: biochemical; details: recombinant PDE4B1, 0.5 μM cAMP; read-out: PDE4B1 Inhibitory values measured as -logIC50 (converted)
T1 construct: made in house; host or cells: SF21 insect cells (baculovirus; virus made in SF9 cells, pCR-Bac vector)
Description: Method for Measuring Inhibition of PDE4 Activity
The PDE4B1 (GB no. L20966) was a gift of Prof. M. Conti (Stanford University, USA). It was amplified from the original plasmid (pCMV5) via PCR with primers Rb18 (5′-[…]-3′) and Rb10 (5′-[…]-3′) and cloned into the pCR-Bac vector (Invitrogen, Groningen, NL).
The recombinant baculovirus was prepared by means of homologous recombination in SF9 insect cells. The expression plasmids were cotransfected with Baculo-Gold DNA (Pharmingen, Hamburg) using a standard protocol (Pharmingen, Hamburg). Wt virus-free recombinant virus supernatants were selected using plaque assay methods. After that, high-titre virus supernatants were prepared by amplifying 3 times. PDE4B1 was expressed in SF21 cells by infecting 2×10^6 cells/ml with an MOI (multiplicity of infection) between 1 and 10 in the serum-free SF900 medium (GIBCO Life Technologies, Karlsruhe, Germany) The cells were cultured at 28° C. for 48-72 hours, after which they were pelleted for 5-10 min at 1000×g and 4° C.
The SF21 insect cells were resuspended, at a concentration of approx. 10^7 cells/ml, in ice-cold (4° C.) homogenization buffer (20 mM Tris, pH 8.2, containing the following additions: 140 mM NaCl, 3.8 mM KCl, 1 mM EGTA, 1 mM MgCl2, 10 mM β-mercaptoethanol, 2 mM benzamidine, 0.4 mM Pefablock, 10 μM leupeptin, 10 μM pepstatin A, 5 μM trypsin inhibitor) and disrupted by ultrasonication. The homogenate was then centrifuged for 10 min at 1000×g and the supernatant was stored at −80° C. until subsequent use (see below). The protein content was determined by the Bradford method (BioRad, Munich) using BSA (Bovine serum albumin) as the standard.
PDE4B1 activities were measured in a 96-well platform using SPA (scintillation proximity assay) yttrium silicate beads (RPNQ1050 from GE Healthcare). In a first step the PDE activity operated hydrolysis of either [^3H] cAMP (substrate) into […]. In a second step substrate and product were distinguished following addition of SPA yttrium silicate beads. […] Close proximity of bound [^3H] […] The test volume was 100 μl and finally contained 20 mM Tris buffer (pH 7.4), 0.1 mg/ml of BSA, 5 mM Mg^2+, 0.5 μM cAMP (including about 50,000 cpm of [3H]cAMP) as substrate, 1 μl of the respective substance dilution in DMSO and sufficient recombinant PDE (1000×g supernatant, see above) to ensure that 10-20% of the cAMP was converted under the said experimental conditions. […] After a preincubation of 5 min at 37° C., the reaction was commenced by adding the substrate (cAMP) and the assays were incubated for a further 15 min. Reactions were terminated by adding SPA beads (50 μl). In agreement with the manufacturer's instructions, the SPA beads had previously been resuspended in water, but were then diluted 1:3 (v/v) in water. This diluted solution further contained 3 mM IBMX (isobutylmethylxanthine) to ensure a complete block of PDE activity. Once the beads were sedimented (>30 min), the MTP's (micro titerplate) were analyzed in commercially available […]. The corresponding IC50 values of the compounds for inhibition of PDE4B1 activity were determined from the concentration-effect curves by means of non-linear regression.
(§1) The numbers of the compounds correspond to the numbers of the examples.

human PDE5 = biological target: T2, human PDE5 (Homo sapiens, UniProt O76074); assay: Inhibition of PDE5 activity (platelet lysate, SPA assay); assay type: biochemical; details: 0.5 μM cGMP, read-out: PDE5 Inhibitory values measured as -logIC50 (converted)
T2 construct: from tissue; host or cells: human platelets from fresh donor blood (platelet lysate)
Description: Method for Measuring Inhibition of PDE5 Activity
As a source for human PDE5, platelets were used. For that purpose, 150 ml fresh blood from human donors anticoagulated with citrate [final concentration 0.3% (w/v)] was centrifuged at 200 g for 10 min to obtain the so-called platelet-rich-plasma (PRP) as a supernatant. […] After centrifugation (1,400 g, 10 min) the cell pellet was resuspended in 3 ml homogenization buffer (NaCl 140 mM, KCl 3.8 mM, EGTA (ethylene glycol tetraacetic acid) 1 mM, MgCl2 1 mM, Tris-HCl 20 mM, beta-mercaptoethanol 1 mM, pH 8.2) plus protease-inhibitor mix resulting in final concentrations of 0.5 mM Pefablock (Roche), 10 μM Leupeptin, 5 μM Trypsine inhibitor, 2 mM Benzamidin and 10 μM Pepstatin A. The suspension was sonicated and thereafter centrifuged for 15 min at 10,000 g. The resulting supernatant (platelet lysate) was used for enzymatic assays.
PDE5 activities were measured in a 96-well platform using SPA (scintillation proximity assay) yttrium silicate beads (RPNQ1050 from GE Healthcare). In a first step the PDE activity operated hydrolysis of either [^3H] cGMP (substrate) into [^3H] 5′GMP. In a second step substrate and product were distinguished following addition of SPA yttrium silicate beads. Indeed, in the presence of zinc sulphate the linear [^3H] […] Close proximity of bound [^3H] […] The test volume was 100 μl and contained 20 mM Tris buffer (pH 7.4), 0.1 mg of BSA (bovine serum albumin)/ml, 5 mM Mg^2+, 1 μM motapizone (PDE3 Inhibitor), 10 nM PDE2 inhibitor 2-(3,4-dimethoxybenzyl)-7-[(1R,2R)-2-hydroxy-1-(2-phenylethyl)propyl]-5-methylimidazo[5,1-f][1,2,4]triazin-4(3H)-one, 0.5 μM cGMP (cyclic guanosine monophosphate) (including about 50,000 cpm of [3H]cGMP as a tracer) (substrate), 1 μl of the respective compound dilution in dimethylsulfoxide (DMSO) and sufficient PDE5-containing platelet lysat (10,000×g supernatant, see above) to ensure that 10-20% of the cGMP was converted under the said experimental conditions. […] After a preincubation of 5 min at 37° C., the reaction was commenced by adding the substrate (cGMP) and the assay was incubated for a further 15 min. The reaction was terminated by adding SPA beads (50 μl). In agreement with the manufacturer's instructions, the SPA beads had previously been resuspended in water, but were then diluted 1:3 (v/v) in water. This diluted solution also contained 3 mM 8-methoxymethyl-3-isobutyl-1-methylxanthine (IBMX) to ensure a complete block of PDE activity. Once the beads were sedimented (>30 min), the MTP's were analyzed in commercially available luminescence detection devices. The corresponding IC50 values of the compounds for inhibition of PDE activity were determined from the concentration-effect curves by means of non-linear regression.
as §1

T1 sequence (Q07343 whole entry): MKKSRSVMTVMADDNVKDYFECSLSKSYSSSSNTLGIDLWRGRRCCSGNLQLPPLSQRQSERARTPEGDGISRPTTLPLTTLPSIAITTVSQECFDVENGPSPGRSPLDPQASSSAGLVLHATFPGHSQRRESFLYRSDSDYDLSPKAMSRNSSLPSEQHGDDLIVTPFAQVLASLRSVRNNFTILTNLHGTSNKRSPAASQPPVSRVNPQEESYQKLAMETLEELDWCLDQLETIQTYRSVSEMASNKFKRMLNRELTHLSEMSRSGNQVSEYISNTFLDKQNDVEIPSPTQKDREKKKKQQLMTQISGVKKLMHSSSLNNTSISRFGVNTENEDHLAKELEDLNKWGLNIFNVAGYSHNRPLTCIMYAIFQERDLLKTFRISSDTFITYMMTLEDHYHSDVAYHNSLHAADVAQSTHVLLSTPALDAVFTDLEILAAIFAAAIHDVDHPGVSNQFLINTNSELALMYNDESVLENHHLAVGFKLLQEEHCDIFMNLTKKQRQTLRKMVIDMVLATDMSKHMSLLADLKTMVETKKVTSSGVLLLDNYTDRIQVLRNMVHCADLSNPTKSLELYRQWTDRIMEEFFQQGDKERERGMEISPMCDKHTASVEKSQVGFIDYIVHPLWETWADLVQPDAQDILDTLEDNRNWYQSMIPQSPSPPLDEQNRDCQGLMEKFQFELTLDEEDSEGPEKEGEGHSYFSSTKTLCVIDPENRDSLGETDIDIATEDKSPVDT

Row | IC50 (PDE4B1) [nM] | IC50 (human PDE5) [nM] | SMILES
1 | < 1 | 1 to 10 | COc1ccc(C2=NN(C3CCN(C(=O)[C@@H](Cc4cc(F)cc(F)c4)NC(=O)c4c[nH]c5c(-c6c(OCC7CC7)ccc7c6OCO7)ncnc45)CC3)C(=O)[C@@H]3CCCC[C@H]23)cc1OC [Example 1, 4-[5-(cyclopropylmethoxy)-1,3-benzodioxol-4-yl]-N-[(2R)-3-(3,5-difluorophenyl)-1-{4-[(4aS,8aR)-4-(3,4-dimethoxyphenyl)-1-oxo-4a,5,6,7,8,8a-hexahydrophthalazin-2(1H)-yl]piperidin-1-yl}-1-oxopropan-2-yl]-5H-pyrrolo[3,2-d]pyrimidine-7-carboxamide]
2 | 1 to 10 | 1 to 10 | COc1cc(OCC2CC2)c(-c2ncnc3c(C(=O)N[C@@H](Cc4cccc(C)c4)C(=O)N4CCC(N5N=C(c6ccc(OC)c(OC)c6)[C@H]6CCCC[C@H]6C5=O)CC4)c(C)[nH]c23)cc1F [Example 2, 4-[2-(cyclopropylmethoxy)-5-fluoro-4-methoxyphenyl]-N-[(2S)-1-{4-[(4aS,8aR)-4-(3,4-dimethoxyphenyl)-1-oxo-4a,5,6,7,8,8a-hexahydrophthalazin-2(1H)-yl]piperidin-1-yl}-3-(3-methylphenyl)-1-oxopropan-2-yl]-6-methyl-5H-pyrrolo[3,2-d]pyrimidine-7-carboxamide]
3 | < 1 | 1 to 10 | COc1ccc(C2=NN(C3CCN(C(=O)[C@H](Cc4cccc(C)c4)NC(=O)c4c[nH]c5c(-c6c(OCC7CC7)ccc7c6OCO7)ncnc45)CC3)C(=O)[C@@H]3CCCC[C@H]23)cc1OC [Example 3, 4-[5-(cyclopropylmethoxy)-1,3-benzodioxol-4-yl]-N-[(2S)-1-{4-[(4aS,8aR)-4-(3,4-dimethoxyphenyl)-1-oxo-4a,5,6,7,8,8a-hexahydrophthalazin-2(1H)-yl]piperidin-1-yl}-3-(3-methylphenyl)-1-oxopropan-2-yl]-5H-pyrrolo[3,2-d]pyrimidine-7-carboxamide]
4 | 1 to 10 | 1 to 10 | COc1ccc(C2=NN(C3CCN(C(=O)[C@H](Cc4cccc(C)c4)NC(=O)c4c(C)[nH]c5c(-c6c(OCC7CC7)ccc7c6OCO7)ncnc45)CC3)C(=O)[C@@H]3CCCC[C@H]23)cc1OC [Example 4, 4-[5-(cyclopropylmethoxy)-1,3-benzodioxol-4-yl]-N-[(2S)-1-{4-[(4aS,8aR)-4-(3,4-dimethoxyphenyl)-1-oxo-4a,5,6,7,8,8a-hexahydrophthalazin-2(1H)-yl]piperidin-1-yl}-3-(3-methylphenyl)-1-oxopropan-2-yl]-6-methyl-5H-pyrrolo[3,2-d]pyrimidine-7-carboxamide]
5 | 1 to 10 | 1 to 10 | COc1cc(OCC2CC2)c(-c2ncnc3c(C(=O)N[C@H](Cc4ccc(C(C)(C)C)cc4)C(=O)N4CCC(N5N=C(c6ccc(OC)c(OC)c6)[C@H]6CCCC[C@H]6C5=O)CC4)c(C)[nH]c23)cc1F [Example 5, N-[(2R)-3-(4-tert-butylphenyl)-1-{4-[(4aS,8aR)-4-(3,4-dimethoxyphenyl)-1-oxo-4a,5,6,7,8,8a-hexahydrophthalazin-2(1H)-yl]piperidin-1-yl}-1-oxopropan-2-yl]-4-[2-(cyclopropylmethoxy)-5-fluoro-4-methoxyphenyl]-6-methyl-5H-pyrrolo[3,2-d]pyrimidine-7-carboxamide]
6 | 1 to 10 | 1 to 10 | COc1ccc(C2=NN(C3CCN(C(=O)[C@@H](Cc4ccc(C(C)(C)C)cc4)NC(=O)c4c[nH]c5c(-c6c(OCC7CC7)ccc7c6OCO7)ncnc45)CC3)C(=O)[C@@H]3CCCC[C@H]23)cc1OC [Example 6, N-[(2R)-3-(4-tert-butylphenyl)-1-{4-[(4aS,8aR)-4-(3,4-dimethoxyphenyl)-1-oxo-4a,5,6,7,8,8a-hexahydrophthalazin-2(1H)-yl]piperidin-1-yl}-1-oxopropan-2-yl]-4-[5-(cyclopropylmethoxy)-1,3-benzodioxol-4-yl]-5H-pyrrolo[3,2-d]pyrimidine-7-carboxamide]
7 | 1 to 10 | < 1 | COc1ccc(C2=NN(C3CCN(C(=O)[C@@H](Cc4ccc(C(N)=O)cc4)NC(=O)c4c[nH]c5c(-c6c(OCC7CC7)ccc7c6OCO7)ncnc45)CC3)C(=O)[C@@H]3CCCC[C@H]23)cc1OC [Example 7, N-[(2R)-3-(4-carbamoylphenyl)-1-{4-[(4aS,8aR)-4-(3,4-dimethoxyphenyl)-1-oxo-4a,5,6,7,8,8a-hexahydrophthalazin-2(1H)-yl]piperidin-1-yl}-1-oxopropan-2-yl]-4-[5-(cyclopropylmethoxy)-1,3-benzodioxol-4-yl]-5H-pyrrolo[3,2-d]pyrimidine-7-carboxamide]
8 | 1 to 10 | < 1 | CCOc1ccc(C[C@@H](NC(=O)c2c(C)[nH]c3c(-c4cc(F)c(OC)cc4OCC4CC4)ncnc23)C(=O)N2CCC(N3N=C(c4ccc(OC)c(OC)c4)[C@H]4CCCC[C@H]4C3=O)CC2)cc1 [Example 8, 4-[2-(cyclopropylmethoxy)-5-fluoro-4-methoxyphenyl]-N-[(2R)-1-{4-[(4aS,8aR)-4-(3,4-dimethoxyphenyl)-1-oxo-4a,5,6,7,8,8a-hexahydrophthalazin-2(1H)-yl]piperidin-1-yl}-3-(4-ethoxyphenyl)-1-oxopropan-2-yl]-6-methyl-5H-pyrrolo[3,2-d]pyrimidine-7-carboxamide]
9 |  | < 1 | COc1ccc(C2=NN(C3CCN(C(=O)[C@H](Cc4cscn4)NC(=O)c4c(C)[nH]c5c(-c6c(OCC7CC7)ccc7c6OCO7)ncnc45)CC3)C(=O)[C@@H]3CCCC[C@H]23)cc1OC [Example 87, 4-[5-(cyclopropylmethoxy)-1,3-benzodioxol-4-yl]-N-[(2S)-1-{4-[(4aS,8aR)-4-(3,4-dimethoxyphenyl)-1-oxo-4a,5,6,7,8,8a-hexahydrophthalazin-2(1H)-yl]piperidin-1-yl}-1-oxo-3-(1,3-thiazol-4-yl)propan-2-yl]-6-methyl-5H-pyrrolo[3,2-d]pyrimidine-7-carboxamide]
